Values after ≈ are worked out from the molar mass of the structure shown.
Key:
[1] = Cytotoxicity against human HCC-S102 cells after 3 days by MTT assay; assay type: functional, cell-based; settings: HCC-S102, 72 h
[2] = system: T47D; experiment: Cytotoxicity against human T47D cells after 3 days by MTT assay; assay type: functional, cell-based; settings: 72 h
[3] = system: HepG2; experiment: Cytotoxicity against human HepG2 cells after 3 days by MTT assay; assay type: functional, cell-based; settings: HepG2, 72 h
[4] = system: KB; experiment: Cytotoxicity against human KB cells after 3 days by MTT assay; assay type: functional, cell-based; settings: 72 h
[5] = system: H69AR; experiment: Cytotoxicity against human H69AR cells after 3 days by MTT assay; assay type: functional, cell-based; settings: 72 h
[6] = system: Plasmodium falciparum; experiment: Antimalarial activity against chloquine-resistant Plasmodium falciparum T9.94 infected in human erythrocyte assessed as decrease in parasite growth after 48 hrs by microscopy; assay type: functional, organism-based; settings: T9.94, 48 h
[7] = system: P388; experiment: Cytotoxicity against mouse P388 cells after 3 days by MTT assay; assay type: functional, cell-based; settings: P388, 72 h
[8] = system: HeLa; experiment: Cytotoxicity against human HeLa cells after 3 days by MTT assay; assay type: functional, cell-based; settings: 72 h
[9] = system: Streptococcus pyogenes; experiment: Antimicrobial activity against Streptococcus pyogenes assessed as growth inhibition at 128 ug/ml by agar dilution method; assay type: functional
[10] = system: Moraxella catarrhalis; experiment: Antimicrobial activity against Branhamella catarrhalis assessed as growth inhibition at 128 ug/ml by agar dilution method; assay type: functional
[11] = system: MDA-MB-231; experiment: Cytotoxicity against human MDA-MB-231 cells after 3 days by MTT assay; assay type: functional, cell-based; settings: MDA-MB-231, 72 h
[12] = system: A549; experiment: Cytotoxicity against human A549 cells after 3 days by MTT assay; assay type: functional, cell-based; settings: A549, 72 h
[13] = Cytotoxicity against human HuCCa1 cells after 3 days by MTT assay; assay type: functional, cell-based; settings: HuCC-A1, 72 h
[14] = system: HL-60; experiment: Cytotoxicity against human HL60 cells after 3 days by MTT assay; assay type: functional, cell-based; settings: HL-60, 72 h
[15] = system: Staphylococcus epidermidis; experiment: Antimicrobial activity against Staphylococcus epidermidis ATCC 12228 assessed as growth inhibition at 10 ug/ml by agar dilution method; assay type: functional
[16] = system: Streptococcus pyogenes; experiment: Antimicrobial activity against Streptococcus pyogenes assessed as growth inhibition at 10 ug/ml by agar dilution method; assay type: functional
[17] = system: Moraxella catarrhalis; experiment: Antimicrobial activity against Branhamella catarrhalis assessed as growth inhibition at 10 ug/ml by agar dilution method; assay type: functional
[18] = system: Neisseria mucosa; experiment: Antimicrobial activity against Neisseria mucosa assessed as growth inhibition at 10 ug/ml by agar dilution method; assay type: functional
[19] = system: Edwardsiella tarda; experiment: Antimicrobial activity against Edwardsiella tarda assessed as growth inhibition at 10 ug/ml by agar dilution method; assay type: functional
[20] = system: Bacillus subtilis; experiment: Antimicrobial activity against Bacillus subtilis ATCC 6633 assessed as growth inhibition at 10 ug/ml by agar dilution method; assay type: functional
[21] = system: Staphylococcus aureus; experiment: Antimicrobial activity against Staphylococcus aureus ATCC 25923 assessed as growth inhibition at 10 ug/ml by agar dilution method; assay type: functional
[22] = system: Moraxella catarrhalis; experiment: Antimicrobial activity against Branhamella catarrhalis assessed as growth inhibition at 64 ug/ml by agar dilution method; assay type: functional
[23] = system: Candida albicans; experiment: Antifungal activity against Candida albicans assessed as growth inhibition at 128 ug/ml by agar dilution method; assay type: functional
[24] = system: Neisseria mucosa; experiment: Antimicrobial activity against Neisseria mucosa assessed as growth inhibition at 128 ug/ml by agar dilution method; assay type: functional

SMILES: O=c1ccnc(SCc2ccccc2)[nH]1
- IC50 [1]: > 50 µg/mL
- IC50 [2]: > 50 µg/mL
- IC50 [3]: > 50 µg/mL
- IC50 [4]: > 50 µg/mL
- IC50 [5]: > 50 µg/mL
- IC50 [6]: 10 µM
- IC50 [7]: > 50 µg/mL
- IC50 [8]: > 50 µg/mL
- inhibition at 128 µg/mL [9]: 25%
- inhibition at 128 µg/mL [10]: 50%
- IC50 [11]: > 50 µg/mL
- IC50 [12]: > 50 µg/mL
- IC50 [13]: > 50 µg/mL
- IC50 [14]: > 50 µg/mL

SMILES: CC1(C)S[C@@H]2[C@H](NC(=O)[C@H](N)c3ccccc3)C(=O)N2[C@H]1C(=O)O [AMPICILLIN]
- inhibition at 10 µg/mL [15]: 100%
- inhibition at 10 µg/mL [16]: 100%
- inhibition at 10 µg/mL [17]: 100%
- inhibition at 10 µg/mL [18]: 100%
- inhibition at 10 µg/mL [19]: 100%
- inhibition at 10 µg/mL [20]: 100%
- inhibition at 10 µg/mL [21]: 100%

SMILES: COc1cc([C@@H]2c3cc4c(cc3[C@@H](O[C@@H]3O[C@@H]5CO[C@@H](C)O[C@H]5[C@H](O)[C@H]3O)[C@H]3COC(=O)[C@H]23)OCO4)cc(OC)c1O [ETOPOSIDE]
- IC50 [1]: 6 µg/mL (≈ 10.2 µM)
- IC50 [2]: 0.05 µg/mL (≈ 0.085 µM)
- IC50 [3]: 21 µg/mL (≈ 35.7 µM)
- IC50 [4]: 0.25 µg/mL (≈ 0.425 µM)
- IC50 [5]: 30 µg/mL (≈ 51 µM)
- IC50 [7]: 0.12 µg/mL (≈ 0.204 µM)
- IC50 [8]: 0.38 µg/mL (≈ 0.646 µM)
- IC50 [11]: 0.24 µg/mL (≈ 0.408 µM)
- IC50 [12]: 0.6 µg/mL (≈ 1.02 µM)
- IC50 [13]: 4 µg/mL (≈ 6.8 µM)
- IC50 [14]: 0.85 µg/mL (≈ 1.44 µM)

SMILES: CCC(C)Sc1nccc(=O)[nH]1 (configuration not stated)
- IC50 [3]: > 50 µg/mL
- IC50 [6]: 10 µM
- IC50 [12]: > 50 µg/mL
- IC50 [13]: > 50 µg/mL

SMILES: O=c1ccnc(SCC2CCCCC2)[nH]1
- IC50 [1]: > 50 µg/mL
- IC50 [2]: > 50 µg/mL
- IC50 [3]: > 50 µg/mL
- IC50 [4]: > 50 µg/mL
- IC50 [5]: 50 µg/mL (≈ 223 µM)
- IC50 [6]: 10 µM
- IC50 [7]: 40.4 µg/mL (≈ 180 µM)
- inhibition at 64 µg/mL [22]: 100%
- IC50 [8]: > 50 µg/mL
- inhibition at 128 µg/mL [9]: 100%
- IC50 [11]: > 50 µg/mL
- inhibition at 128 µg/mL [23]: 75%
- IC50 [12]: > 50 µg/mL
- inhibition at 128 µg/mL [24]: 25%
- IC50 [13]: > 50 µg/mL
- IC50 [14]: > 50 µg/mL

SMILES: CCCCSc1nccc(=O)[nH]1
- IC50 [1]: > 50 µg/mL
- IC50 [2]: 5 µg/mL (≈ 27.1 µM)
- IC50 [3]: > 50 µg/mL
- IC50 [4]: 27 µg/mL (≈ 147 µM)
- IC50 [5]: > 50 µg/mL
- IC50 [6]: 10 µM
- IC50 [7]: > 50 µg/mL
- IC50 [8]: > 50 µg/mL
- inhibition at 128 µg/mL [9]: 25%
- inhibition at 128 µg/mL [10]: 100%
- IC50 [11]: > 50 µg/mL
- IC50 [12]: > 50 µg/mL
- inhibition at 128 µg/mL [24]: 25%
- IC50 [13]: > 50 µg/mL
- IC50 [14]: > 50 µg/mL

SMILES: O=c1ccnc(SC23CC4CC(CC(C4)C2)C3)[nH]1
- IC50 [1]: > 50 µg/mL
- IC50 [2]: 32 µg/mL (≈ 122 µM)
- IC50 [3]: 32.5 µg/mL (≈ 124 µM)
- IC50 [4]: > 50 µg/mL
- IC50 [5]: 35 µg/mL (≈ 133 µM)
- IC50 [6]: 10 µM
- IC50 [7]: 36.9 µg/mL (≈ 141 µM)
- IC50 [8]: > 50 µg/mL
- inhibition at 128 µg/mL [9]: 25%
- inhibition at 128 µg/mL [10]: 75%
- IC50 [11]: > 50 µg/mL
- IC50 [12]: > 50 µg/mL
- inhibition at 128 µg/mL [24]: 25%
- IC50 [13]: > 50 µg/mL
- IC50 [14]: > 50 µg/mL

From ChEMBL document CHEMBL1667784, “Synthesis and structure-activity relationship of 2-thiopyrimidine-4-one analogs as antimicrobial and anticancer agents” (Eur J Med Chem, 2011)
